Laboratory results taken from ChEMBL document CHEMBL2086253, “Synthesis and biological evaluation of cyanoguanidine derivatives of loratadine” (Bioorg Med Chem Lett, 2012).
pIC50: −log10 of the molar value. Activity calls are given as the source filed them. The rule behind the calls is not given here.

Legend:
Mus musculus [1] = assay: Antiinflammatory activity in Kunming mouse assessed as inhibition of xylene-induced ear edema at 4 mg/kg, ip for 5 days relative to control; format: functional; conditions: 120 h, route intraperitoneal
MDA-MB-231 [2] = assay: Cytotoxicity against human MDA-MB-231 cells after 72 hrs by crystal violet staining; format: functional, cell-based; conditions: MDA-MB-231, 72 h
MCF7 [3] = assay: Cytotoxicity against human MCF7 cells after 72 hrs by crystal violet staining; format: functional, cell-based; conditions: MCF7, 72 h
HT-29 [4] = assay: Cytotoxicity against human HT-29 cells after 72 hrs by crystal violet staining; format: functional, cell-based; conditions: HT-29, 72 h
[5] = target: T1, Prostaglandin G/H synthase 1 (Ovis aries) (UniProt P05979); assay: Inhibition of isolated ovine COX-1 at 10 uM by ELISA
T1 sequence (whole entry): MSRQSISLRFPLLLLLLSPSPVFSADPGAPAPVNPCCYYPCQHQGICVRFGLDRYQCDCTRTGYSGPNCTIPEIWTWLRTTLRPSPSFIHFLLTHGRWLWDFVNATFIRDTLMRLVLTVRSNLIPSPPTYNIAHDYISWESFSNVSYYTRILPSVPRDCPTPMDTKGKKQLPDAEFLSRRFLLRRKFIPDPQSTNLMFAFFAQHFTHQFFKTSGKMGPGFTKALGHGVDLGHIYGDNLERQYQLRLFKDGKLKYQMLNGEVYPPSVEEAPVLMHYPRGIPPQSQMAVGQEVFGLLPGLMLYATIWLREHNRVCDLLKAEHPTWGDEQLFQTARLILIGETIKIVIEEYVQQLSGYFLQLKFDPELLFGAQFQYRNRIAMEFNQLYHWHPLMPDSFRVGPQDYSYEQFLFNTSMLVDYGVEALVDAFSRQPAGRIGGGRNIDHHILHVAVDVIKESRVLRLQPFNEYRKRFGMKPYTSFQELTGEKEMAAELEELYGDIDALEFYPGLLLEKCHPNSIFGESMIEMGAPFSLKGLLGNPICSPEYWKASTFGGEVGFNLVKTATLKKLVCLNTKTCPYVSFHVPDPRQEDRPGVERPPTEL

Mus musculus [6] = assay: Antiinflammatory activity in Kunming mouse assessed as inhibition of xylene-induced ear edema at 30 mg/kg, ip for 5 days relative to control; format: functional; conditions: 120 h, route intraperitoneal
HT-29 [7] = assay: Cytotoxicity against human HT-29 cells at 0.63 to 10 uM up to 140 hrs by crystal violet staining; format: functional, cell-based
HT-29 [8] = assay: Ratio of loratadine IC50 to compound IC50 for human HT-29 cells; format: functional
MDA-MB-231 [9] = assay: Ratio of loratadine IC50 to compound IC50 for human MDA-MB-231 cells; format: functional
HT-29 [10] = assay: Ratio of 5-fluorouracil IC50 to compound IC50 for human HT-29 cells; format: functional
MCF7 [11] = assay: Cytotoxicity against human MCF7 cells at 0.63 to 10 uM up to 140 hrs by crystal violet staining; format: functional, cell-based
MCF7 [12] = assay: Ratio of 5-fluorouracil IC50 to compound IC50 for human MCF7 cells; format: functional
MCF7 [13] = assay: Ratio of loratadine IC50 to compound IC50 for human MCF7 cells; format: functional
MDA-MB-231 [14] = assay: Ratio of 5-fluorouracil IC50 to compound IC50 for human MDA-MB-231 cells; format: functional

With `N#C/N=C(/NCCc1ccccc1)N1CCC(=C2c3ccc(Cl)cc3CCc3cccnc32)CC1` the inhibition in vivo at 4 mg/kg (Mus musculus [1]) was 13%, the pIC50 (MDA-MB-231 [2]) was 5.59 and the pIC50 (MCF7 [3]) was 5.64. The pIC50 (HT-29 [4]) was 5.49.

Compound `COc1ccc2c(c1)c(CC(=O)O)c(C)n2C(=O)c1ccc(Cl)cc1` has an inhibition [5] of 56%.

`N#C/N=C(/NCc1ccccc1)N1CCC(=C2c3ccc(Cl)cc3CCc3cccnc32)CC1` showed an inhibition in vivo at 4 mg/kg (Mus musculus [1]) of 13%, a pIC50 (MDA-MB-231 [2]) of 5.57 and a pIC50 (MCF7 [3]) of 5.54. It also gave a pIC50 (HT-29 [4]) of 5.51.

`CC(C)Cc1ccc(C(C)C(=O)O)cc1` (centres undefined) [IBUPROFEN] gave an inhibition in vivo at 4 mg/kg (Mus musculus [1]) of 8.22% and an inhibition in vivo at 30 mg/kg (Mus musculus [6]) of 39.1%.

`CC(N/C(=N/C#N)N1CCC(=C2c3ccc(Cl)cc3CCc3cccnc32)CC1)c1ccccc1` (centres undefined) was tested, and the inhibition in vivo at 4 mg/kg (Mus musculus [1]) was 26.1%, the inhibition [5] was 4.9% and the pIC50 (MDA-MB-231 [2]) was 5.16. For the same compound, the pIC50 (MCF7 [3]) was 5.40 and the pIC50 (HT-29 [4]) was 5.43.

`CCCCCCCCN/C(=N/C#N)N1CCC(=C2c3ccc(Cl)cc3CCc3cccnc32)CC1` was tested, and the Activity (HT-29 [7]) was “Active”, the inhibition in vivo at 4 mg/kg (Mus musculus [1]) was 15.6% and the pIC50 (MDA-MB-231 [2]) was 5.39. For the same compound, the “Ratio IC50” value (HT-29 [8]) was 2, the “Ratio IC50” value (MDA-MB-231 [9]) was 2 and the “Ratio IC50” value (HT-29 [10]) was 2. The pIC50 (MCF7 [3]) was 5.85, the Activity (MCF7 [11]) was “Active” and the “Ratio IC50” value (MCF7 [12]) was 2. For the same compound, the pIC50 (HT-29 [4]) was 5.70, the “Ratio IC50” value (MCF7 [13]) was 2 and the “Ratio IC50” value (MDA-MB-231 [14]) was 2.

`O=c1[nH]cc(F)c(=O)[nH]1` [FLUOROURACIL] showed a pIC50 (MCF7 [3]) of 5.33.

Compound `CCCCN/C(=N/C#N)N1CCC(=C2c3ccc(Cl)cc3CCc3cccnc32)CC1` has an inhibition in vivo at 4 mg/kg (Mus musculus [1]) of 17.4%, a pIC50 (MDA-MB-231 [2]) of 5.51 and a pIC50 (MCF7 [3]) of 5.41. It also gave a pIC50 (HT-29 [4]) of 5.40.

`CCCCCN/C(=N/C#N)N1CCC(=C2c3ccc(Cl)cc3CCc3cccnc32)CC1` was tested, and the inhibition in vivo at 4 mg/kg (Mus musculus [1]) was 13%, the pIC50 (MDA-MB-231 [2]) was 5.77 and the pIC50 (MCF7 [3]) was 5.46. It also gave a pIC50 (HT-29 [4]) of 5.36.

For `N#C/N=C(/NC1CCCCC1)N1CCC(=C2c3ccc(Cl)cc3CCc3cccnc32)CC1`, the inhibition in vivo at 4 mg/kg (Mus musculus [1]) was 17.4%, the pIC50 (MDA-MB-231 [2]) was 5.72 and the pIC50 (MCF7 [3]) was 5.41. For the same compound, the pIC50 (HT-29 [4]) was 5.40.

In the case of `COc1ccc(CCN/C(=N/C#N)N2CCC(=C3c4ccc(Cl)cc4CCc4cccnc43)CC2)cc1OC`, the inhibition in vivo at 4 mg/kg (Mus musculus [1]) was 21.7%, the pIC50 (MDA-MB-231 [2]) was 4.74 and the pIC50 (MCF7 [3]) was 5.15. It also gave a pIC50 (HT-29 [4]) of 5.24.

With `N#C/N=C(/NCCc1ccc2c(c1)OCO2)N1CCC(=C2c3ccc(Cl)cc3CCc3cccnc32)CC1` the inhibition in vivo at 4 mg/kg (Mus musculus [1]) was 13%, the pIC50 (MDA-MB-231 [2]) was 4.89 and the pIC50 (MCF7 [3]) was 5.10. The pIC50 (HT-29 [4]) was 5.19.
